ChEMBL document CHEMBL1133077, “Pyrrolo[3,2-c]pyridine derivatives as inhibitors of platelet aggregation” (Bioorg Med Chem Lett, 2000)

Experiments:
[1] = 1-Octanol/water distribution coefficient measured at 7.4; format: physicochemical; conditions: pH 7.4
Homo sapiens = species on record: Homo sapiens; assay: Compound was evaluated for inhibition of ADP-mediated platelet aggregation; format: functional; design: concentration or dose not given beside the values

Row | SMILES | logD [1] | Inhibition (Homo sapiens)
1 | C=Cn1ccc2c1CCN(Cc1ccccc1)C2 | – | 38.7%
2 | CCN1CCc2[nH]ccc2C1 | – | 23.7%
3 | CC1CN(C)C(C)c2cc(CO)[nH]c21 (stereo not given) | – | 3.3%
4 | CC1CN(C)C(C)c2cc(/C=N/CCO)[nH]c21 (stereo not given) | – | 12.2%
5 | c1ccc(CN2CCc3[nH]ccc3C2)cc1 | 1.59 | 46.5%
6 | Clc1ccccc1CN1CCc2sccc2C1 [TICLOPIDINE] | – | 48.5%

Now from value to compound, other results behind:

Row | logD [1] | SMILES | Inhibition (Homo sapiens)
7 | -1.08 | CC1CNC(C)c2cc[nH]c21 (stereo not given) | 26%
8 | 1.14 | CC1CN(C)C(C)c2cc([N+](=O)[O-])[nH]c21 (stereo not given) | 3.6%
9 | -0.41 | CC1CN(C)C(C)c2cc[nH]c21 (stereo not given) | 28.5%
10 | 0.69 | CC1CN(C)C(C)c2cc(C=O)[nH]c21 (stereo not given) | 48%
